Tests used:
Rattus norvegicus [1] = experiment: Compound was evaluated for reversal of the increase in rat striatum DOPA accumulation produced by the pretreatment with GBL (750 mg/Kg, ip) and NSD 1015 (100 mg/Kg, ip); type: functional
Rattus norvegicus [2] = experiment: Compound was evaluated for inhibition of the spontaneous firing of substantia nigra DA neurons in anesthetized rats at 2.5 mg/Kg (ip); type: functional
D(1A) dopamine receptor = D(1A) dopamine receptor (Rattus norvegicus, UniProt P18901); experiment: In vitro binding affinity to Dopamine receptor D1 in rat striatal membranes using D1 antagonist [3H]SCH-23390; type: cell membranes, Striatum, Membrane
D(2) dopamine receptor = D(2) dopamine receptor (Rattus norvegicus, UniProt P61169); experiment: In vitro binding affinity to Dopamine receptor D2 in rat striatal membranes using D2 antagonist [3H]spiperone; type: cell membranes, Striatum, Membrane
[3] = target: Dopamine receptors; D1 & D2 (Rattus norvegicus, UniProt P18901+P61169); experiment: In vitro binding affinity to Dopamine receptor D1/Dopamine receptor D2 in rat striatal membranes using [3H]N-propylnorapomorphine; type: cell membranes, Striatum, Membrane
Rattus norvegicus [4] = experiment: Compound was evaluated for inhibition of the spontaneous firing of substantia nigra DA neurons in anesthetized rats at 0.25 mg/Kg (ip); type: functional
Rattus norvegicus [5] = experiment: Compound (2.0 mg/kg ip.) was evaluated for reversal of the increase in rat striatum DOPA accumulation produced by the pretreatment with GBL (750 mg/Kg, ip) and NSD 1015 (2 mg/Kg, ip); type: functional
Rattus norvegicus [6] = experiment: Compound was evaluated for reversal of the increase in rat striatum DOPA accumulation produced by the pretreatment with GBL (750 mg/kg, ip) and NSD 1015 (100 mg/Kg, ip); type: functional

D(1A) dopamine receptor, sequence (P18901 whole entry): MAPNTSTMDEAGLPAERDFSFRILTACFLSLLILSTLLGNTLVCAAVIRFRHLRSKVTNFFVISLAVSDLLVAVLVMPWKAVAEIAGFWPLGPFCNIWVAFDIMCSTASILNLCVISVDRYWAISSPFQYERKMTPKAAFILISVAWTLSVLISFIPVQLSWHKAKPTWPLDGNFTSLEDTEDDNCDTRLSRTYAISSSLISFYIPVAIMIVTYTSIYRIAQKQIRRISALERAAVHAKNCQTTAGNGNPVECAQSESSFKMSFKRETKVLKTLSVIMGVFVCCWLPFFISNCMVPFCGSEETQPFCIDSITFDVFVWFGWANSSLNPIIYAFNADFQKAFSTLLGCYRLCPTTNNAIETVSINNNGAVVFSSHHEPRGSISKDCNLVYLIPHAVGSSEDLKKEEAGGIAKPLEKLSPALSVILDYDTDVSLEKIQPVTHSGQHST
D(2) dopamine receptor, sequence (P61169 whole entry): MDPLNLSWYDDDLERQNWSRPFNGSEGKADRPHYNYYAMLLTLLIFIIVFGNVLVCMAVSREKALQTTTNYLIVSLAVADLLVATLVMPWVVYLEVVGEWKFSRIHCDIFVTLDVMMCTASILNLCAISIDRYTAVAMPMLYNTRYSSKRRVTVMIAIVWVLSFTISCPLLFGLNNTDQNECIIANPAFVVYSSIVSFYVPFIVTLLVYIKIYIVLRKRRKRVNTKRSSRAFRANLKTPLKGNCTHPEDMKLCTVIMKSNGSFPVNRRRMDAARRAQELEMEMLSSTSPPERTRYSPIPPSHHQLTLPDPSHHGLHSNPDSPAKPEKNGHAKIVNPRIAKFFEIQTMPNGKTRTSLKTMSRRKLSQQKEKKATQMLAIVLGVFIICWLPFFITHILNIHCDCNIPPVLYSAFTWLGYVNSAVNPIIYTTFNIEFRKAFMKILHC

SMILES | ED50 (Rattus norvegicus [1]) [mg/kg] | inhibition in vivo at 2.5 mg/kg (Rattus norvegicus [2]) [%] | IC50 (D(1A) dopamine receptor) [nM] | IC50 (D(2) dopamine receptor) [nM] | IC50 [3] [nM] | inhibition in vivo at 0.25 mg/kg (Rattus norvegicus [4]) [%] | Inhibition (Rattus norvegicus [5]) [%] | ED50 (Rattus norvegicus [6]) [mg/kg]
CCCN1CCC=C2c3nc(N)sc3CC[C@H]21 | 4.8 | 91 | > 15000 |  |  |  |  | 
CN1CCC=C2c3nc(N)sc3CC[C@H]21 | 0.5 | 99 | > 20000 | 376 | 127 |  |  | 
CN1CCc2cccc3c2[C@H]1Cc1ccc(O)c(O)c1-3 [APOMORPHINE] |  |  |  |  |  | 100 | 100 | 
CCCN1CCC=C2c3nc(N)sc3CC[C@@H]21 | > 10 | 22 | > 15000 |  |  |  |  | 
CN1CCC=C2c3nc(N)sc3CC[C@@H]21 |  | 67 | > 20000 | 768 | 464 |  |  | > 10

From ChEMBL document CHEMBL1125951, “Synthesis and dopaminergic activity of the enantiomers of 6-methyl-4,5a,6,7,8-hexahydrothiazolo[4,5-f]quinolin-2-amine (PD 128483)” (Bioorg Med Chem Lett, 1991)
